Results on six compounds are retold here after patent US20040235717A1, “Suppression of androgen receptor transactivation through new pathways to ar and ar coactivators and repressors” (priority 2001, published 2004).

Read-outs that look alike come from different tables or passages of the source.

For test [1], the system named is wtAR, mtARt877a, PR, VDR, ER transactivation. As to the kind of experiment: Steroid receptor transactivation with Smad3 in DU145 cells (wtAR, mtARt877a, PR, VDR, ER). The format is cell-based, human.
Test [2] has the same test system. The following applies: previous reports; cited from earlier work.
The subject of test [3] is AR transactivation. As to the kind of experiment: AR transactivation with Smad3/Smad4, CAT reporters in PC3-AR2, PC-3 and LNCaP cells. The format is cell-based, human. To be noted: PC3-AR2. As for the experimental part: 32. […] LNCaP cell were transfected with Smad3 or Smad4 expression vector instead of PC-3(AR)2 cells in experiments otherwise identical with those in A (B), PC-3(AR)2 cells stably transfected with AR were over-expressed with the indicated amounts of Smad3 or Smad4 or SRC-1. 3 μg of MMTV-CAT was used as a reporter plasmid in all experiments. All values represent the averages±SD of four independent experiments. […] PSA expression level was determined by Northern blotting. The probe was obtained from exon 1 of the PSA gene and labeled with [α-^32P] dCTP. A β-actin probe was used as a control for equivalent mRNA loading. (C, Table 1) The RNA samples from (A) were reverse transcribed to cDNAs and all of the samples were subjected to real-time CR using an ABI Prism 7700 Sequence Detection System (Perkin-Elmer Applied bio systems). PCR was performed using the SYBR Green PCR Core Reagents kit (Perkin-Elmer Applied Bio systems). PSA and β-actin forward, reverse primers concentrations were 2.5 μM. To reduce variability between replicates, PCR premixes which contained all reagents except for total RNA were prepared and aliquoted into 1.5 ml microfuge tubes. Specific PCR amplification products were detected by the fluorescent double-stranded DNA-binding dye SYBR Green core reagent kit. […]
333. […] The CAT activity was visualized and quantitated by STORM 840 (Molecular Dynamics). […]

A further test has as its system PSA mRNA expression. As to the kind of experiment: PSA mRNA expression in LNCaP cells, Northern blot. The class given is cell-based. To be noted: presence of androgen.
Test [4] relates to AR transactivation. The test can be described thus: AR transactivation, MMTV-luc / (ARE)4-luc luciferase reporter assay. The class given is cell-based. To be noted: 10 nM DHT; for Repression of AR transactivation: MMTV-luc.
The test system of the next test is AR, ER, GR, PR, RXR. As to the kind of experiment: GST pull-down assay of PTEN with nuclear receptors. The format is binding. To be noted: presence or absence of ligand. As to the method: 27. […] (A) GST or GST-PTEN incubation with the [^35S]-labeled AR, ER, or RXR for 2 h in the presence or absence of the ligand. The bound proteins were analyzed by SDS-PAGE, followed by autoradiography. (B) Representation of PTEN deleted mutants. PTP domain, protein tyrosine phosphates domain; Ty-p, tyrosine phosphorylation domain. (C) [^35S]-labeled AR was incubated with different PTEN deleted mutants. The nearly equivalent aliquots of PTEN deleted mutants used are shown in the right panel. (D) Representation of AR deleted mutants. (E) GST or GST-PTEN was incubated with different AR deleted mutants. (F) The His-AR-N-DBD was incubated with [^35S]-PTEN or [^35S]-PTEN C124S for 2 h. The bound protein was analyzed by the SDS-PAGE, followed by autoradiography.
313. GST fusion proteins were purified as described by the manufacturer (Amersham Pharmacia). The purified GST-proteins were resuspended with 100 μl of interaction buffer (20 mM Tris-HCl/pH 8.0, 60 mM NaCl, 1 mM EDTA, 6 mM MgCl2, 1 mM Dithiothreitol, 8% Glycerol, 0.05% (v/v) NP-40, 1 mM PMSF, and proteinase inhibitors) and mixed with 5 μl of [^35S]-labeled TNT proteins in the presence or absence of 1 μM ligands on a rotating disk at 4° C. for 2 h. After extensive washes with NENT buffer, the bound proteins were separated on an 8% SDS-polyacrylamide gel and visualized by autoradiography.

The test system of the next test is AR protein levels. As to the kind of experiment: AR protein (Western blot) and AR mRNA (Northern blot) levels. The format is cell-based.
A further test concerns AR protein stability. As to the kind of experiment: Pulse-chase labeling of AR in COS-1 cells. The format is cell-based. To be noted: 10 nM DHT. As for the experimental part:
30. […] The cells were harvested for Western blot analysis. […] Western blot analysis was performed and AR and PTEN were detected by AR antibody or PTEN antibody. (C) PTEN-C1 cells were treated with 4 μg/ml Dox in 10% CDS media for 48 h. Total RNA was prepared and Northern blot analysis was performed using [^32P]-dCTP-labeled AR (aa, 1-389) as a probe. (D) COS-1 cells were transfected with AR along with pCDNA3 or PTEN in 10% CDS media for 16 h. […] The cell extracts were immunoprecipitated with AR antibody and subjected to SDS-PAGE followed by autoradiography. Data were from three identical results. (E) COS-1 cells were transfected with AR along with pCDNA3 or dAkt in 10% CDS media for 16 h, pulsed with [^35S]-methionine for 45 min, and then harvested at different chase times as indicated. LY294002 (20 μM) was added 2 h before pulsing with [^35S]-methionine.
317. Pulse-chase experiments were performed as described (Lo et al. (1999) Nat Cell Biol 1, 472-8) with some modifications. Briefly, COS-1 cells were transfected with pSG5-AR in combination with pCDNA3 or pCDNA3 PTEN in 10% CDS media for […]. Cells were grown under serum starvation conditions for 2 h in methionine/cysteine-deficient medium, and then the cells were pulsed for 45 min with 200 μCi/ml [^35S]-methionine/cysteine (NEN). […]

In a further test the test system is LNCaP cells. As to the kind of experiment: PTEN-induced apoptosis in LNCaP cells, TUNEL assay. The class given is cell-based. To be noted: 0.1% CDS media 2 days.
In the next test the test system is U87MG cells. The test can be described thus: PTEN-induced apoptosis in AR-negative U87MG cells, TUNEL assay. The format is cell-based. As for the experimental part: (§1) 31. […] (D) The LNCaP cells were transfected with plasmids as indicated for 16 h, and the medium was changed to 0.1% CDS media for 2 days. The cell apoptosis was determined by TUNEL assay (E) The LNCaP cells were transfected with plasmids as indicated for 16 h, harvested, and the cell extracts were subjected to SDS-PAGE. The Akt activity was determined by Western blotting using phospho(S473)-Akt antibody. (F) The U87MG cells were transfected with plasmids as indicated for 16 h, and the medium was changed 0.1% CDS media for 2 days. The cell apoptosis was determined by TUNEL assay. Data for luciferase activity and apoptosis are means±s.d. from three independent experiments.
311. For the apoptosis assay, the cells were transfected with plasmids for 24 h and grown in 0.1% charcol-stripped serum (CDS) media. The apoptosis was determined 2 days after transfection using the TUNEL assay according to the standard procedures (Oncogene). At least 200 cells were scored for each sample and data are means±s.d. from three independent experiments.

In test [5] the test system is AR transactivation. The test can be described thus: AR transactivation, (ARE)4-luc in CWR22 cells. The format is cell-based, human. As for the experimental part:
as §1
312. […] The cells were lysed and the luciferase activity was detected by the dual luciferase assay according to standard procedures.

Test [6] concerns AR-mediated transactivation. The test can be described thus: AR-mediated transactivation with TGF-β, MMTV-CAT in DU145 and PC-3 cells. The class given is cell-based, human. As for the experimental part:
19. […] (B). […] In the right panel, a fixed amount of TGF-β1 (10 ng/ml) was added into transfected PC-3 cells with increasing amounts of specific TGF-β1 neutralizing antibody. (C), PC-3(AR)2 cells stably transfected with AR were overexpressed with TGF-β type I (TβRI) or type II (TβRII)receptor or constitutively active TGF-β type I receptor (TβRI-T204D) as indicated. 3 μg of MMTV-CAT or MMTV-Luc was used as a reporter plasmid in all experiments. All values represent the averages+SD of four independent experiments.
284. To study the potential correlation between androgen and TGF-β in prostate cancer cells, the TGF-β responsive prostate cancer DU145 and PC-3 cells were chosen to examine the effect of TGF-β on androgen-induced mouse […] tumor virus (MMTV) promoter activity. […] Similar results were obtained with PC-3 cells, where AR-mediated transactivation was enhanced by TGF-β (FIG. 13B, lane 2 Vs 3-5) and suppressed by the TGF-β specific neutralizing antibody (FIG. 13B, lane 6 vs. 7-10), both in a dose-dependent manner (FIG. 13B).
294. […] The CAT activity was visualized and quantitated by STORM 840 (Molecular Dynamics). […]

Test [7] concerns the target T1, interaction between Smad3 and AR (Homo sapiens, UniProt P10275).
T1 construct: expressed in transfected cells; host or cells: DU145
As to the kind of experiment: Mammalian two-hybrid assay Gal4-Smad3 / VP16-AR. To be noted: DU145. The format is cell-based.

Test [8] concerns AR transactivation. The test can be described thus: AR transactivation with TSA, MMTV-LUC in PC3-AR2 cells. The class given is cell-based.
Test [9] deals with AR transactivation. The following applies: previous reports; cited from earlier work.

T1 sequence (P10275 whole entry): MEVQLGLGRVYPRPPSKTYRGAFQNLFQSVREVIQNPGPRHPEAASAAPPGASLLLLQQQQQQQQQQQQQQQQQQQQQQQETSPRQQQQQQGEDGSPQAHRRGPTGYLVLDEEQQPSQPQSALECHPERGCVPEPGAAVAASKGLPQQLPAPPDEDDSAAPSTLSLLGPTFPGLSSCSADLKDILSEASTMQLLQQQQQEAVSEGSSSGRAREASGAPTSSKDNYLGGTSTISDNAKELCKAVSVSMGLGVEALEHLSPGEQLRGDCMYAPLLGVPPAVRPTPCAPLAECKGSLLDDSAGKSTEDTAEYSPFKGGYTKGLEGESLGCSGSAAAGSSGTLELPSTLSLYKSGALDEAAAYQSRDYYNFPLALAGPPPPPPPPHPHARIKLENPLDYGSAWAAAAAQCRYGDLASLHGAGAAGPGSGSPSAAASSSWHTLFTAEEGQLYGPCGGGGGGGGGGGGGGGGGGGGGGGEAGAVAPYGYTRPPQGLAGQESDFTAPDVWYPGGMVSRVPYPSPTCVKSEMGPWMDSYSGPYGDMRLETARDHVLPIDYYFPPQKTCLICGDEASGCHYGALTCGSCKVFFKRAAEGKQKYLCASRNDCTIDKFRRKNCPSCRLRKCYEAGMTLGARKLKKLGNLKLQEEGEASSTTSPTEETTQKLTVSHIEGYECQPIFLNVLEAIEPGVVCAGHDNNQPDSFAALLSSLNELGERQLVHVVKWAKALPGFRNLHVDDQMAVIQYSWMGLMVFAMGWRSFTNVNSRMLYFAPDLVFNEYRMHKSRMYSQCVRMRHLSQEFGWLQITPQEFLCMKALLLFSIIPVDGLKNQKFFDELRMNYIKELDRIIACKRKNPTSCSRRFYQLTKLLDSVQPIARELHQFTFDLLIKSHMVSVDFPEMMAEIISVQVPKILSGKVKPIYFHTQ
T1 sequence (P84022 whole entry partner): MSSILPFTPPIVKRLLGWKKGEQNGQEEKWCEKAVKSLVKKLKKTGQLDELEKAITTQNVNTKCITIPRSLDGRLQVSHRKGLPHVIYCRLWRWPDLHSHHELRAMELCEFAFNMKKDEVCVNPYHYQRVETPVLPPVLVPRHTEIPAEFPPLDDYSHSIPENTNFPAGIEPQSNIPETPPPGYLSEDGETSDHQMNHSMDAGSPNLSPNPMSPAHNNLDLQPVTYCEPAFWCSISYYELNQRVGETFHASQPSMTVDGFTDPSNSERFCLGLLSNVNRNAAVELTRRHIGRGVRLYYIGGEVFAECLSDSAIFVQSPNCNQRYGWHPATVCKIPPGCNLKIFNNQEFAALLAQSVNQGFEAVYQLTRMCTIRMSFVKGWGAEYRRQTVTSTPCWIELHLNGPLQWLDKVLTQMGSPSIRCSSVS

Consider `C[C@]12CC[C@@H]3c4ccc(O)cc4CC[C@H]3[C@@H]1CC[C@@H]2O` [E2, 17-β estradiol], for which the “mtARt877a transactivation response to ligand” value in [1] is listed as “responded much better”. Further, in [1] (DHT 10 nM, HF 1 μM, E2 10 nM), the “wtAR transactivation response to ligand” value is listed as “respond marginally”. In addition, the “Stimulation of LNCaP mtARt877a” value in test [2] was “stimulated”.

Turning to SRC-1: steroid receptor coactivator-1, the “Effect on AR transactivation in the presence of Smad3 or Smad4” value in the test with AR transactivation [3] is on record as “increase AR transactivation”.

On to “PTEN: tumor suppressor, phosphatase and tensin homolog deleted on chromosome ten”, for which, in the test with PSA mRNA expression, the “Effect on androgen-induced PSA mRNA expression” value is listed as “repressed”. The “Repression of AR transactivation” value with AR transactivation [4] (AR negative DU145 and PC-3) is given as “less than 2 fold”; in the test with AR transactivation [4] (AR-positive LNCaP cells) it was 4 fold. In addition, the “Effect on AR transactivation” value in the test with AR transactivation [4] (LNCaP, MMTV-luc and (ARE)4-luc) was “suppressed AR transactivation in both luciferase reporters at a similar level”; in the test on AR transactivation [5] it was “dramatically suppressed AR transactivation”. Also, the “Binding to nuclear receptors” value with AR, ER, GR, PR, RXR was “binds preferentially to AR and the ER”. Further, the AR protein levels entry with AR protein levels (COS-1 cells, transient transfection) is reported as “reduce AR protein levels”. The “AR mRNA levels normalized by β-actin” value with AR protein levels (LNCaP PTEN-C1, Dox-induced PTEN) was “remained relatively unchanged”. The “Endogenous AR protein levels” value in the test with AR protein levels (stable LNCaP clones, 4 μg/ml Dox 48 h, 10 nM DHT) was “reduced endogenous AR protein levels”. In the test with AR protein stability, the “Reduction of the half-life of newly synthesized [35S]-AR” value is given as 4 to 5 fold. The Apoptosis entry in the test on LNCaP cells is recorded as “induce apoptosis markedly”; in the test on U87MG cells, “still able to induce apoptosis”.

Turning to TGF-β: transforming growth factor β, the “Effect on AR-mediated transactivation” value in [6] (DU145, 10^−8 M DHT, TGF-β1 10 ng/ml) is given as “enhanced”; in test [6] (PC-3, dose-dependent), “enhanced”. Also, the results for the “Effect on Smad3-AR two-hybrid reporter gene activity” value in test [7] (10 nM DHT) and in test [7] (absence of DHT) were “further induced” and “cannot exert this effect”, respectively.

Take `CC(/C=C/C(=O)NO)=C\[C@@H](C)C(=O)c1ccc(N(C)C)cc1` [TSA, trichostatin A]: the results for the “Effect on Smad3/Smad4-suppressed AR transactivation” value in the test with AR transactivation [8] and in the test on AR transactivation [8] (listed as trichostatin A) were “reverse the Smad3/Smad4-suppressed AR transactivation in a dose-dependent manner” and “reverse Smad3/Smad4-repressed AR transactivation”, respectively. In the test on AR transactivation [8] (DHT, increasing doses), the “Effect on AR transactivation” value is listed as “enhance AR transactivation in a dose-dependent manner”. The “Effect on androgen-mediated AR transactivation” value with AR transactivation [9] is recorded as “induce the androgen-mediated AR transactivation”.

Regarding `CC(=O)[C@H]1CC[C@H]2[C@@H]3CCC4=CC(=O)CC[C@]4(C)[C@H]3CC[C@]12C` [progesterone], the “Stimulation of LNCaP mtARt877a” value in [2] is listed as “stimulated”.
